The numbers were not newly measured in US12433928B2, “Therapeutic treatment for the coronavirus disease COVID-19” (priority 2020, dated 2025), which cites them from elsewhere.

The data set has as its system herpes simplex virus type 1 (HSV-1). As to conditions: certain viruses, e.g. HSV-1 in vitro.

Turning to `Cc1ccc(C(C)C)c(O)c1` [thymol], the “antiviral activity in medical studies” value was “antiviral activity and effectiveness”.
